Among the data in patent US20240197726A1, “NOVEL TETRAHYDROISOQUINOLINE ALKALOID COMPOUND CONTAINING MACROCYCLE” (THE UNIVERSITY OF TOKYO, priority 2021, published 2024) are GI50 and antitumor activity values, retold here.

Read-outs that look alike come from different tables or passages of the source.

Common to all, as to format: cell-based
The subject of test [1] is HBC-4 breast cancer cells. In words: antitumor activity, sulforhodamine B cell growth assay, HBC-4. Particulars: HBC-4, drug exposure 48 hours, read-out: GI50 value: 50% growth inhibitory concentration. The procedure, abridged:
(§1)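 Read-out is sulforhodamine B absorbance (525 nm) after a 48 h compound treatment of adherent cells grown in RPMI 1640 with 5% fetal bovine serum. Percent growth at each concentration was plotted against log concentration to derive GI50, TGI and LC50.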

Test [2] concerns HBC-5 breast cancer cells. As to the kind of experiment: antitumor activity, sulforhodamine B cell growth assay, HBC-5. Particulars: HBC-5, drug exposure 48 hours, read-out: GI50 value: 50% growth inhibitory concentration. The procedure, abridged: as §1
Test [3] has as its system MDA-MB-231 breast cancer cells. As to the kind of experiment: antitumor activity, sulforhodamine B cell growth assay, MDA-MB-231. Conditions: MDA-MB-231, drug exposure 48 hours, read-out: GI50 value: 50% growth inhibitory concentration. The essentials:
as §1

The subject of test [4] is SF-268 central nervous system cancer cells. In words: antitumor activity, sulforhodamine B cell growth assay, SF-268. Conditions: SF-268, drug exposure 48 hours, read-out: GI50 value: 50% growth inhibitory concentration. On the procedure: (§2) The THIQ compound containing a macrocyclic structure of the present invention was administered to various cancer cell lines, and the antitumor activity (Go value) was observed. Specifically, verification was performed according to the literature (Yamori, T.; Matsunaga, A.; Sato, S.; Yamazaki, K.; Komi, A.; Ishizu, K. et al. Cancer Res. 1999, 59, 4042) by the following procedure.
(§3) Cells were plated at an appropriate density in a 96-well plate in RPMI 1640 together with 5% fetal bovine serum, and adhered overnight. The cells were exposed to a drug for 48 hours. Then, according to the sulforhodamine B assay described by Skehan et al (Skehan P., Storeng R., Scudiero D., Monks A., McMahon J., Vistica D., Warren J. T., Bokesch H., Kenney S., Boyd M. R. J Natl. Cancer Inst, 1990, 82, 1107-1112), the cell growth rate was measured. The absorbance of the control well (C) and the test well (T) was measured at 525 nm. In addition, the time at which the drug was added was set as time 0, and the absorbance for the test well (T0) was measured. Using these measured values, the cell growth inhibitory effect (% growth=PG) was calculated by the following formula at each concentration of the drug.
(§4) (T<T0): PG=100×[(T−T0)/T]
(§5) The PG values determined above for each cell line were plotted against the concentration (logarithm) on a semi-logarithmic graph, and summarized for each visceral cancer. Concentrations at which the dose-response curve of each cell line crossed the horizontal line of PG=50%, 0%, or −50% were calculated. These concentrations were defined as Log GI50, Log TGI, and Log LC50. Actually, using two data points of the drug concentration before and after crossing each horizontal line, the drug concentration (logarithmic value) at the intersection of the straight line connecting the two points and the horizontal line for each PG was calculated.

In test [5] the test system is SF-295 central nervous system cancer cells. As to the kind of experiment: antitumor activity, sulforhodamine B cell growth assay, SF-295. Particulars: SF-295, drug exposure 48 hours, read-out: GI50 value: 50% growth inhibitory concentration. The essentials:
as §1

Test [6] deals with SF-539 central nervous system cancer cells. As to the kind of experiment: antitumor activity, sulforhodamine B cell growth assay, SF-539. Conditions: SF-539, drug exposure 48 hours, read-out: GI50 value: 50% growth inhibitory concentration. The procedure, abridged: as §1
The subject of test [7] is SNB-78 central nervous system cancer cells. In words: antitumor activity, sulforhodamine B cell growth assay, SNB-78. Conditions: SNB-78, drug exposure 48 hours, read-out: GI50 value: 50% growth inhibitory concentration. The procedure, abridged: as §1
The test system of test [8] is HCC2998 colorectal cancer cells. As to the kind of experiment: antitumor activity, sulforhodamine B cell growth assay, HCC2998. Particulars: HCC2998, drug exposure 48 hours, read-out: GI50 value: 50% growth inhibitory concentration. The essentials:
as §1

The test system of test [9] is HCT-15 colorectal cancer cells. In words: antitumor activity, sulforhodamine B cell growth assay, HCT-15. Particulars: HCT-15, drug exposure 48 hours, read-out: GI50 value: 50% growth inhibitory concentration. The essentials:
as §1

Test [10] concerns NCI-H23 lung cancer cells. As to the kind of experiment: antitumor activity, sulforhodamine B cell growth assay, NCI-H23. Conditions: NCI-H23, drug exposure 48 hours, read-out: GI50 value: 50% growth inhibitory concentration. On the procedure: as §2, §3, §4, §5
Test [11] concerns NCI-H226 lung cancer cells. In words: antitumor activity, sulforhodamine B cell growth assay, NCI-H226. Particulars: NCI-H226, drug exposure 48 hours, read-out: GI50 value: 50% growth inhibitory concentration. The procedure, abridged: as §1
For test [12], the system named is NCI-H522 lung cancer cells. In words: antitumor activity, sulforhodamine B cell growth assay, NCI-H522. Conditions: NCI-H522, drug exposure 48 hours, read-out: GI50 value: 50% growth inhibitory concentration. The procedure, abridged:
as §1

A further test relates to OVCAR-3 cancer cells. As to the kind of experiment: antitumor activity, sulforhodamine B cell growth assay, OVCAR-3. Conditions: OVCAR-3, drug exposure 48 hours, read-out: GI50 value: 50% growth inhibitory concentration. On the procedure: as §2, §3, §4, §5
The next test concerns OVCAR-4 cancer cells. In words: antitumor activity, sulforhodamine B cell growth assay, OVCAR-4. Particulars: OVCAR-4, drug exposure 48 hours, read-out: GI50 value: 50% growth inhibitory concentration. On the procedure: as §2, §3, §4, §5
For test [13], the system named is OVCAR-5 cervical cancer cells. As to the kind of experiment: antitumor activity, sulforhodamine B cell growth assay, OVCAR-5. Particulars: OVCAR-5, drug exposure 48 hours, read-out: GI50 value: 50% growth inhibitory concentration. As for the experimental part:
as §2, §3, §4, §5

A further test relates to SK-OV-3 cancer cells. As to the kind of experiment: antitumor activity, sulforhodamine B cell growth assay, SK-OV-3. Conditions: SK-OV-3, drug exposure 48 hours, read-out: GI50 value: 50% growth inhibitory concentration. The procedure, abridged:
as §1

A further test concerns ACHN kidney cancer cells. As to the kind of experiment: antitumor activity, sulforhodamine B cell growth assay, ACHN. Particulars: ACHN, drug exposure 48 hours, read-out: GI50 value: 50% growth inhibitory concentration. The procedure, abridged: as §1
In test [14] the test system is MKN1 gastric cancer cells. In words: antitumor activity, sulforhodamine B cell growth assay, MKN1. Particulars: MKN1, drug exposure 48 hours, read-out: GI50 value: 50% growth inhibitory concentration. The procedure, abridged: as §1
Test [15] has as its system MKN-B gastric cancer cells. As to the kind of experiment: antitumor activity, sulforhodamine B cell growth assay, MKN-B. Particulars: MKN-B, drug exposure 48 hours; read-out: GI50 value: 50% growth inhibitory concentration. The procedure, abridged: as §1
The test system of test [16] is MKN-A gastric cancer cells. As to the kind of experiment: antitumor activity, sulforhodamine B cell growth assay, MKN-A. Particulars: MKN-A, drug exposure 48 hours; read-out: GI50 value: 50% growth inhibitory concentration. The essentials: as §1
Test [17] has as its system MKN45 gastric cancer cells. As to the kind of experiment: antitumor activity, sulforhodamine B cell growth assay, MKN45. Conditions: MKN45, drug exposure 48 hours, read-out: GI50 value: 50% growth inhibitory concentration. The procedure, abridged: as §1
Test [18] relates to various cancer cell lines. In words: Verification of antitumor activity, whole panel of cancer cell lines. Conditions: in words, compared with Cyanosafracin B. As for the experimental part:
as §2, §3, §4, §5

Turning to `COc1c(C)cc2c(c1O)[C@@H]1[C@@H]3Cc4c5c(C)c6c(c4C(CNC(=O)[C@H](C)NC(=O)OCC4C=C(CO5)Cn5c(=O)n(-c7ccccc7)c(=O)n54)N3[C@@H](C#N)[C@H](C2)N1C)OCO6` [Compound 16], the GI50 was determined as 5.2 nM in [1] (HBC4); 6.9 nM in [2] (HBC5); 6.7 nM in test [3] (Homo sapiens); 13 nM in test [4] (Homo sapiens); 29 nM in test [5] (Homo sapiens); 8.2 nM in test [6] (Homo sapiens). Moreover, the GI50 worked out at 7.5 nM in test [7] (Homo sapiens); 17 nM in [8] (Homo sapiens, HCC 2998); 43 nM in test [9] (Homo sapiens); 20 nM in [10] (Homo sapiens); 25 nM in test [11] (Homo sapiens); 2.4 nM in test [12] (Homo sapiens). The GI50 in the test on OVCAR-3 cancer cells (Homo sapiens) was 6.4 nM; with OVCAR-4 cancer cells (Homo sapiens), 36 nM; in test [13] (Homo sapiens), 31 nM; in the test on SK-OV-3 cancer cells (Homo sapiens) it was 34 nM; in the test with ACHN kidney cancer cells (Homo sapiens), 25 nM; in test [14] (Homo sapiens, MKN-1) it was 4.8 nM. Further, the GI50 in test [15] is 30 nM; in [16], 29 nM; in test [17] (Homo sapiens, MKN-45), 7.1 nM. In [18], the antitumor activity result is reported as “better antitumor activity than Cyanosafracin B”.

`COc1c(C)cc2c(c1O)C1C3Cc4c5c(C)c6c(c4C(CNC(=O)C(C)NC(=O)OCC4C=C(CO5)CC5C(=O)N(c7ccccc7)C(=O)C45)N3C(C#N)C(C2)N1C)OCO6` (stereo not drawn) [Compound 18]: the GI50 in [1] turned out to be 30 nM; in test [2] it was 38 nM; in test [3], 41 nM; in [4] it was 74 nM; in [5], 300 nM; in test [6] it was 33 nM. The GI50 in [7] was determined as 40 nM; in test [8], 95 nM; in [9] it was 630 nM; in test [10], 110 nM; in test [11] it was 280 nM; in test [12], 20 nM. Further, the GI50 in the test on OVCAR-3 cancer cells is 43 nM; in the test on OVCAR-4 cancer cells it was 350 nM; in [13], 280 nM; in the test with SK-OV-3 cancer cells it was 410 nM; in the test with ACHN kidney cancer cells, 240 nM; in test [14], 50 nM. For the same compound, the GI50 in [15] amounted to 160 nM; in test [16], 210 nM; in [17] it was 78 nM. Besides, the antitumor activity entry in [18] is on record as “better antitumor activity than Cyanosafracin B”.

Take `COc1c(C)cc2c(c1O)C1C3Cc4c5c(C)c6c(c4C(CNC(=O)C(C)NCC=CCO5)N3C(C#N)C(C2)N1C)OCO6` (stereo not drawn) [Compound 42]: the GI50 in test [1] was under 10 nM; in test [2], 17 nM; in test [3] it was under 10 nM; in [4], 27 nM; in test [5] it was 38 nM; in [6] it was 17 nM. Also, the GI50 in test [7] was 11 nM; in test [8], 18 nM; in [9], 47 nM; in test [10] it was 31 nM; in [11] it was 30 nM; in test [12] it was under 10 nM. Further, the GI50 came out at 15 nM in the test with OVCAR-3 cancer cells; 55 nM in the test with OVCAR-4 cancer cells; 47 nM in [13]; 49 nM with SK-OV-3 cancer cells; 42 nM with ACHN kidney cancer cells; 18 nM in test [14]. The GI50 is 25 nM in [15], 36 nM in test [16] and 16 nM in test [17]. In addition, the antitumor activity result in [18] was “better antitumor activity than Cyanosafracin B”.
